Activity calls are given as the source filed them. The rule behind the calls is not given here.

This note sets out measurements from ChEMBL document CHEMBL6114956, “Design, synthesis, and evaluation of the pharmacological activity of novel NMDA receptor antagonists based on the germacrone scaffold” (2025).

In assay [1] the test system is PC-12. Kind of assay: Neuroprotective activity against NMDA-induced cell injury in rat PC12 cells at 5 uM incubated for 12 hrs by MTT assay relative to control. It counts as functional.
For assay [2], the system named is PC-12. Kind of assay: Neuroprotective activity against NMDA-induced cell injury in rat PC12 cells at 0.05 uM incubated for 12 hrs by MTT assay relative to control. It counts as functional. (Tetrazolium assays rely on reduction of a dye to a coloured formazan, in cell work by metabolically active cells.)
Assay [3] has as its system PC-12. Kind of assay: Neuroprotective activity against NMDA-induced cell injury in rat PC12 cells at 0.5 uM incubated for 12 hrs by MTT assay relative to control. In kind it is functional.
Assay [4] has as its target Glutamate NMDA receptor (Rattus norvegicus) (UniProt P35439+Q00959+Q00960+Q00961+Q62645+Q8VHN2+Q9R1M7). Kind of assay: Antagonist activity at NMDAR in rat PC12 cells assessed as inhibition of NMDA-induced Ca2+ influx at 0.05 uM preincubated for 6 hrs followed by NMDA addition measured for 1 to 3 mins by Fluo-4 AM staining based analysis. In kind it is cell-based. The following applies: filed as antagonist, time 361-363 min.

Take `CC(C)=C1C/C=C(/C)CC/C=C(\C)CC1OC(=O)[C@@H](C)NC(=O)c1ccc(Cl)cc1` (stereo not given in full): the figures for the Activity in assay [1], in assay [2] and in assay [3] were 5.32%, 15.03% and 16.58%, respectively.

Take `CC(C)=C1C/C=C(/C)CC/C=C(\C)CC1OC(=O)[C@@H](C)NC(=O)c1ccc(O)cc1` (stereo not given in full): the Activity in assay [1] came out at 11.03%; in assay [2], 15.74%; in assay [3], 15.08%.

`CC(C)=C1C/C=C(/C)CC/C=C(\C)CC1OC(=O)[C@H](C)NC(=O)c1ccc(O)cc1` (stereo not given in full): the Activity in assay [1] was -2.01%; in assay [2] it was 12.86%; in assay [3] it was 10.31%.

For `CC(C)=C1C/C=C(/C)CC/C=C(\C)CC1OC(=O)[C@@H]1CCC2=Nc3ccccc3CN21` (stereo not given in full), the Activity is given as 24.42% in assay [1], “Active; Compound Activity Was Superior To Ifenprodil” in assay [4], 29.63% in assay [2] and 26.17% in assay [3].

For the compound `CC(C)=C1C/C=C(/C)CC/C=C(\C)CC1OC(=O)[C@@H](C)NC(=O)c1ccc(F)cc1` (stereo not given in full), the Activity stood at 12.32% in assay [1], 13.93% in assay [2] and 9.33% in assay [3].

Consider `CC(C)=C1C/C=C(/C)CC/C=C(\C)CC1OC(=O)[C@H](C)NC(=O)c1ccc(Cl)cc1` (stereo not given in full), for which the Activity worked out at 11.25% in assay [1], 14.06% in assay [2] and 15.27% in assay [3].

For the compound `CC(C)=C1C/C=C(/C)CC/C=C(\C)CC1OC(=O)[C@H](C)NC(=O)c1ccc(F)cc1` (stereo not given in full), the Activity is reported as 16.47% in assay [1], 15.35% in assay [2] and 12.7% in assay [3].

In the case of `CC(C)=C1C/C=C(/C)CC/C=C(\C)CC1OC(=O)[C@@H]1CCC2=Nc3ccc(Br)cc3CN21` (stereo not given in full), the Activity is reported as 29.37% in assay [1], 23.62% in assay [2] and 28.02% in assay [3].

Regarding `CC(C)=C1C/C=C(/C)CC/C=C(\C)CC1=O`, the Activity is -4.79% in assay [1], 14.66% in assay [2] and 2.94% in assay [3]. The outcome in assay [4] was Active.

`CC(C)=C1C/C=C(/C)CC/C=C(\C)CC1OC(=O)[C@@H]1CCC2=Nc3ccc(Cl)cc3CN21` (stereo not given in full): the Activity in assay [1] was determined as 25.35%; in assay [2], 28.73%; in assay [3] it was 28.87%.

On to `CC(C(O)c1ccc(O)cc1)N1CCC(Cc2ccccc2)CC1` (stereo not given) [IFENPRODIL], for which the Activity in assay [1] is 31.16%; in assay [2], 18.31%; in assay [3], 22.57%.
